Test systems include HCC-2998 colon; HCT-116 colon; HCT-15 colon; KM12 colon; MALME-3M melanoma; MDA-MB-435; NCI-H226 lung; PC-3 prostate; SF-539 CNS; SK-MEL-28 melanoma; SN12C renal; U251 CNS; HS 578T breast.
Holding throughout (assay): DTP human tumour cell line panel, 48 h

Experimental findings from PubChem BioAssay (NCI) are described below.

The TGI is the concentration at which net growth stops. The GI50 is the concentration that inhibits growth by half.

Molecules are shown by their SMILES.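 Growth conditions: 96-well plates. Treatment: test compound, 48 hours, 5 concentrations. Analysis: linear interpolation between bracketing concentrations; unreached endpoints set to highest concentration. GI50 is the concentration that inhibits growth by half. TGI marks complete inhibition of growth.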 Bounds are passed on as bounds.

On to `COC(=O)C1=C(C(=O)OC)C(OO)(c2ccccc2)OC1=O` (stereo not drawn), for which the TGI in the test on HCC-2998 colon, with HCT-116 colon, with HCT-15 colon, with KM12 colon, with MALME-3M melanoma and in the test with MDA-MB-435 was > 100 µM each time. The TGI in the test on NCI-H226 lung, in the test on PC-3 prostate, in the test with SF-539 CNS, in the test with SK-MEL-28 melanoma, in the test with SN12C renal and in the test with U251 CNS was > 100 µM throughout.
Turning to `CC(CC(C)[C@H]1CCC2[C@H]3C(CC(=O)[C@@]21C)[C@@]1(C)CCC(O)C[C@H]1C[C@@H]3O)C(=O)O` (stereo partly drawn), the concentration for total growth inhibition (TGI) in the test with HCC-2998 colon, in the test on HCT-116 colon, in the test with HCT-15 colon, in the test with KM12 colon, with MALME-3M melanoma and with MDA-MB-435 was > 100 µM throughout. Moreover, the TGI with NCI-H226 lung, in the test on PC-3 prostate, in the test with SF-539 CNS, in the test with SK-MEL-28 melanoma, with SN12C renal and with U251 CNS was > 100 µM throughout.
As for `COC(=O)C1Cc2c([nH]c3ccccc23)-c2[nH]c3ccccc3c2CC(NC(C)=O)C(=O)NCC(=O)NCC(=O)N1` (stereo not drawn), the TGI in the test with HCT-116 colon, with HCT-15 colon, in the test on HS 578T breast, with KM12 colon, with MALME-3M melanoma and in the test on MDA-MB-435 was > 100 µM throughout. Also, the TGI with NCI-H226 lung, with PC-3 prostate, in the test on SF-539 CNS, with SK-MEL-28 melanoma, in the test on SN12C renal and with U251 CNS was > 100 µM in each case.
As to `Cc1ccc(S(=O)(=O)OI(O)CC(F)(F)F)cc1`, the total growth inhibition concentration (TGI) in the test with HCC-2998 colon, in the test with HCT-116 colon, with HCT-15 colon, in the test on KM12 colon, with MDA-MB-435 and in the test with NCI-H226 lung was > 100 µM throughout. Moreover, the total growth inhibition concentration (TGI) with PC-3 prostate, in the test on SF-539 CNS, in the test on SK-MEL-28 melanoma, in the test with SN12C renal and with U251 CNS was > 100 µM in each case.
Consider `C=C(C)CCN(C(=O)OC(C)(C)C)c1cc(C(C)C)co1`, for which the TGI in the test with HCC-2998 colon, in the test on HCT-116 colon, with HCT-15 colon, with KM12 colon, with MDA-MB-435 and in the test with NCI-H226 lung was > 100 µM each time. The TGI is 99.6 µM in the test with PC-3 prostate; > 100 µM in the test with SF-539 CNS; > 100 µM in the test on SK-MEL-28 melanoma; > 100 µM in the test on SN12C renal; > 100 µM in the test with U251 CNS.
`CC1(C)CC2C(/C1=N/O)C1(C)CCCC2(C)C1O` (stereo not drawn): the TGI with HCT-116 colon, with HCT-15 colon, in the test on HS 578T breast, in the test with KM12 colon, with MALME-3M melanoma and with MDA-MB-435 was > 100 µM in each case. Besides, the total growth inhibition concentration (TGI) with NCI-H226 lung, in the test with PC-3 prostate, with SK-MEL-28 melanoma, in the test on SN12C renal and in the test on U251 CNS was > 100 µM in each case.
In the case of `CN(C(=O)c1cc2c(s1)sc1c(=O)n(C)c3ccccc3c12)c1ccccc1`, the total growth inhibition concentration (TGI) with HCC-2998 colon, in the test with HCT-116 colon, with HCT-15 colon, in the test on KM12 colon, in the test with MALME-3M melanoma and in the test with MDA-MB-435 was > 100 µM each time. The TGI in the test on NCI-H226 lung was > 100 µM; in the test on PC-3 prostate, > 100 µM; in the test with SF-539 CNS, 59.8 µM; with SK-MEL-28 melanoma it was > 100 µM; in the test on SN12C renal, > 100 µM; in the test with U251 CNS, > 100 µM.
With `COc1ccc(-c2cc(=O)c3ccc(F)cc3[nH]2)cc1`, the concentration for total growth inhibition (TGI) in the test on HCC-2998 colon, with HCT-116 colon, in the test with KM12 colon, with MALME-3M melanoma, in the test with NCI-H226 lung and with SF-539 CNS was > 100 µM throughout. In addition, the TGI in the test with SK-MEL-28 melanoma and in the test with SN12C renal was > 100 µM each time.
As for `O=c1cc(-c2ccc3ccccc3c2)[nH]c2ncccc12`, the TGI in the test on HCC-2998 colon, with HCT-116 colon, in the test with HCT-15 colon, in the test on HS 578T breast, in the test on KM12 colon and in the test on MALME-3M melanoma was > 100 µM each time. Also, the TGI in the test on NCI-H226 lung is > 100 µM; in the test with PC-3 prostate, > 100 µM; in the test with SF-539 CNS, 64.9 µM; with SK-MEL-28 melanoma it was > 100 µM; with SN12C renal it was > 100 µM; with U251 CNS it was > 100 µM. In addition, the GI50 in the test on HCT-116 colon is 3.83 µM; with PC-3 prostate it was 10.4 µM; with U251 CNS, 4.35 µM.
Take `O=C(NN1C(=O)C(Cl)C1c1cccc(Cl)c1)c1ccccc1O` (stereo not drawn): the TGI in the test with HCT-116 colon, in the test with HCT-15 colon, in the test with KM12 colon, with MALME-3M melanoma, in the test on NCI-H226 lung and in the test on SF-539 CNS was > 100 µM in each case. Moreover, the total growth inhibition concentration (TGI) with SK-MEL-28 melanoma, with SN12C renal and with U251 CNS was > 100 µM throughout.
Consider `C/C(=C(/C)c1cc[n+](C)cc1)c1cc[n+](C)cc1`, for which the TGI with HCT-116 colon, in the test on HCT-15 colon, in the test on KM12 colon, with MALME-3M melanoma, in the test with SF-539 CNS and in the test with SK-MEL-28 melanoma was > 75 µM each time. Besides, the TGI in the test on SN12C renal and with U251 CNS was > 75 µM throughout.
In the case of `CC(C)(C)Cc1cc(O)ccc1O`, the TGI with HCC-2998 colon, in the test with HCT-116 colon, in the test on HCT-15 colon, with KM12 colon, in the test on MALME-3M melanoma and in the test on MDA-MB-435 was > 100 µM throughout. Further, the TGI in the test on NCI-H226 lung, in the test on PC-3 prostate, in the test on SF-539 CNS, with SK-MEL-28 melanoma, in the test with SN12C renal and in the test with U251 CNS was > 100 µM throughout.
